Data from US20220348595A1, “COMPOUNDS AND METHODS FOR THE TARGETED DEGRADATION OF ESTROGEN RECEPTORS” (Endotarget Inc., priority 2021, published 2022).

Experiments:
ER = molecular target: T1, ER (Homo sapiens, UniProt P03372); assay: ER antagonism (T47D ERE luciferase), T47d-kb-Luc cells; format: cell-based; settings: read-out: IC50 (ER antagonistm)
T1 construct: endogenous in cells; host or cells: T47d-kb-Luc (T47D stably transfected with a luciferase reporter gene only)
T1 sequence (P03372 1-595): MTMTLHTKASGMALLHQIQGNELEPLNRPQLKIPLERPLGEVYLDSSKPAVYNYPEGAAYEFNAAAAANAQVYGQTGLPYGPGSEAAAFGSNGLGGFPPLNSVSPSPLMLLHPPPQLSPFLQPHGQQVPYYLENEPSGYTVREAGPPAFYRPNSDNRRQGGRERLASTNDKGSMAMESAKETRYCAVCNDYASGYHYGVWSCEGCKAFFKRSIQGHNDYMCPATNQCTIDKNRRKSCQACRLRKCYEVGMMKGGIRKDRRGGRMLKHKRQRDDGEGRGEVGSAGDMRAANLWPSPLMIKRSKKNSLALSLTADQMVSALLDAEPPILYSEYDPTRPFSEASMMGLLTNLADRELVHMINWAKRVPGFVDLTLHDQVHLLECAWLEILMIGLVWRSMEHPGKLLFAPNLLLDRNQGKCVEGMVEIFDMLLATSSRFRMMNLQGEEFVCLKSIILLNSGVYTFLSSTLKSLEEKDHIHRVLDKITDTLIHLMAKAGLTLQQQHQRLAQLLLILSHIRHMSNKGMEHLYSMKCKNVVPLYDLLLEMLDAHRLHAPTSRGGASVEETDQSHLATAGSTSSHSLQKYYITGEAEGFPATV
Procedure, shortened: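 Stably transfected T47d-kb-Luc human breast cancer cells were used, and antagonism was measured as inhibition of estradiol-driven activity. Data were normalised to the estradiol control. Five concentrations were tested in quadruplicate across at least three experiments.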

ERα = molecular target: T2, ERα (Homo sapiens, UniProt P03372); assay: ER degradation in MCF-7 cells (Western blot); format: cell-based; settings: for DC50: ER degradation, 24 hours; for Dmax: MCF7, Maximal ER degradation, read-out: Dmax
T2 construct: endogenous in cells; host or cells: MCF-7
T2 sequence (P03372 1-595): T1 sequence (P03372 1-595)
Procedure, shortened: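 MCF-7 cells treated with a range of compound concentrations for 24 hours, then lysed; 50 μg protein probed for ERα by Western blot with infrared imaging. DC50 is concentration giving 50% ER reduction; Dmax is the highest percentage reduction over the range tested.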

ST1799 PDX tumor = assay: ST1799 patient derived breast tumor xenograft; format: in vivo; settings: single agent versus vehicle control, p=0.0323; athymic nude female mice
Text: In Vivo Efficacy of Exemplary Compound 69 in ST1799 Patient Derived Breast Tumor Xenocraft
Patient-Derived Xenograft tumor fragments were harvested from host animals and implanted into 6-12 week old athymic nude female mice (Charles River NU(NCr)-Foxn1^nu). Treatment initiated at a mean tumor volume of approximately 175-300 mm^3.

[1] = test system: MCF-7 breast cancer cells; assay: MCF-7 proliferation / cell viability assay; format: cell-based; settings: Homo sapiens, MCF7; MCF-7 proliferation with 0.1 nM 17-beta estradiol; read-out: IC50 (anti-proliferation)
Procedure, shortened: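 MCF-7 cells in 5% FBS DMEM were exposed for 5 days to compound at 6 doses from 10^−10 M to 10^−5 M, with DMSO as vehicle. Viable cells were counted by Coulter counter. Survival ratio = treated/vehicle viable cell number, vehicle set to 100%.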

Structure (SMILES)	IC50 (ER)	DC50 (ERα)	Dmax (ERα)	tumor growth inhibition (ST1799 PDX tumor)	IC50 [1]
CC/C(=C(/c1ccc(OCCN2CCN(CC3CCN(c4ccc5c(c4)CN([C@H]4CCC(=O)NC4=O)C5=O)CC3)CC2)cc1)c1ccc(B(O)O)cc1)c1ccccc1 [Compound 69]	< 10 nM	< 10 nM	> 90%	statistically significant tumor growth inhibition	< 10 nM
CC/C(=C(/c1ccc(O)cc1)c1ccc(N2CCN(C(=O)N3CCC(N4CCN(c5ccc6c(c5)CN(C5CCC(=O)NC5=O)C6=O)CC4)CC3)CC2)cc1)c1ccccc1 (centres unmarked) [Compound 111, (Z)-3-(5-(4-(1-(4-(4-(1-(4-hydroxyphenyl)-2-phenylbut-1-en-1-yl)phenyl)piperazine-1-carbonyl)piperidin-4-yl)piperazin-1-yl)-1-oxoisoindolin-2-yl)piperidine-2,6-dione]	< 10 nM	10 to 50 nM	> 90%	–	10 to 50 nM
CC/C(=C(/c1ccc(B(O)O)cc1)c1ccc(N2CCN(C(=O)N3CCC(N4CCN(c5ccc6c(c5)CN(C5CCC(=O)NC5=O)C6=O)CC4)CC3)CC2)cc1)c1ccccc1 (centres unmarked) [Compound 112, (E)-(4-(1-(4-(4-(4-(4-(2-(2,6-dioxopiperidin-3-yl)-1-oxoisoindolin-5-yl)piperazin-1-yl)piperidine-1-carbonyl)piperazin-1-yl)phenyl)-2-phenylbut-1-en-1-yl)phenyl)boronic acid]	< 10 nM	10 to 50 nM	> 90%	–	10 to 50 nM
CC/C(=C(\c1ccc(O)cc1)c1ccc(N2CCN(C(=O)N3CCC(CN4CCN(c5ccc6c(c5)CN(C5CCC(=O)NC5=O)C6=O)CC4)CC3)CC2)cc1)c1ccccc1 (centres unmarked) [Compound 113, (E)-3-(5-(4-((1-(4-(4-(1-(4-hydroxyphenyl)-2-phenylbut-1-en-1-yl)phenyl)piperazine-1-carbonyl)piperidin-4-yl)methyl)piperazin-1-yl)-1-oxoisoindolin-2-yl)piperidine-2,6-dione]	< 10 nM	< 10 nM	> 90%	–	< 10 nM
CC/C(=C(\c1ccc(B(O)O)cc1)c1ccc(N2CCN(C(=O)N3CCC(CN4CCN(c5ccc6c(c5)CN(C5CCC(=O)NC5=O)C6=O)CC4)CC3)CC2)cc1)c1ccccc1 (centres unmarked) [Compound 114, (Z)-(4-(1-(4-(4-(4-((4-(2-(2,6-dioxopiperidin-3-yl)-1-oxoisoindolin-5-yl)piperazin-1-yl)methyl)piperidine-1-carbonyl)piperazin-1-yl)phenyl)-2-phenylbut-1-en-1-yl)phenyl)boronic acid]	< 10 nM	< 10 nM	> 90%	–	< 10 nM
CC/C(=C(/c1ccc(O)cc1)c1ccc(N2CCN(C(=O)N3CCC(CN4CCN(c5ccc6c(c5)CN(C5CCC(=O)NC5=O)C6=O)CC4)CC3)CC2)cc1)c1ccccc1 (centres unmarked) [Compound 115, (Z)-3-(5-(4-((1-(4-(4-(1-(4-hydroxyphenyl)-2-phenylbut-1-en-1-yl)phenyl)piperazine-1-carbonyl)piperidin-4-yl)methyl)piperazin-1-yl)-1-oxoisoindolin-2-yl)piperidine-2,6-dione]	< 10 nM	< 10 nM	> 90%	–	< 10 nM
CC/C(=C(/c1ccc(B(O)O)cc1)c1ccc(N2CCN(C(=O)N3CCC(CN4CCN(c5ccc6c(c5)CN(C5CCC(=O)NC5=O)C6=O)CC4)CC3)CC2)cc1)c1ccccc1 (centres unmarked) [Compound 116, (E)-(4-(1-(4-(4-(4-((4-(2-(2,6-dioxopiperidin-3-yl)-1-oxoisoindolin-5-yl)piperazin-1-yl)methyl)piperidine-1-carbonyl)piperazin-1-yl)phenyl)-2-phenylbut-1-en-1-yl)phenyl)boronic acid]	< 10 nM	< 10 nM	> 90%	–	< 10 nM
